In brackets after ≈: the same amount, converted by molar mass. Each block holds one molecule with its values, some of them ahead of it.
Tests used:
Assay in all cases: ≥ marks a high value that may be exact or a test limit, other limits are often not marked, values filed in µg/mL are converted to µM
[1] = tested on: Escherichia coli CPCC 100521
[2] = tested on: Candida albicans CPCC 400416
[3] = tested on: Staphylococcus aureus CPCC 100520
[4] = tested on: Salmonella enterica subsp. enterica serovar Typhimurium ATCC 14028
[5] = tested on: Escherichia coli ATCC 11775
[6] = tested on: Escherichia coli ATCC 25922
[7] = tested on: Salmonella enterica subsp. enterica serovar Typhi Vi+
[8] = tested on: Escherichia coli ATCC 35218
[9] = tested on: Staphylococcus aureus 215
[10] = tested on: Enterococcus faecalis A4
[11] = tested on: Staphylococcus aureus
[12] = tested on: Escherichia coli NDM
[13] = tested on: Enterococcus faecium 5F-10
[14] = tested on: Enterococcus faecium
[15] = tested on: Enterococcus faecalis 1F-1
[16] = tested on: Escherichia coli W3110
[17] = tested on: Bacillus amyloliquefaciens ATCC 23842
[18] = tested on: Bacillus cereus ATCC 14579
[19] = tested on: Staphylococcus aureus MR
[20] = tested on: Staphylococcus aureus ATCC 29213
[21] = tested on: Bacillus subtilis ATCC 6051
[22] = tested on: Acinetobacter baumannii AB5075
[23] = tested on: Bacillus licheniformis ATCC 14580
[24] = tested on: Pseudomonas aeruginosa PA14
[25] = tested on: Micrococcus luteus AB2010179
[26] = tested on: Escherichia coli DH5alpha
[27] = tested on: Pseudomonas putida
[28] = tested on: Enterobacter cloacae AB2010162
[29] = tested on: Staphylococcus aureus AB94004
[30] = tested on: Salmonella enterica AB2010185
[31] = tested on: Pseudomonas fluorescens
[32] = tested on: Klebsiella oxytoca AB2010143
[33] = tested on: Bacillus magaterium AB90008
[34] = tested on: Staphylococcus aureus ATCC BAA-44
[35] = tested on: Klebsiella pneumoniae ATCC 27736
[36] = tested on: Pseudomonas aeruginosa ATCC BAA-427
[37] = tested on: Candida albicans ATCC 10231
[38] = tested on: Candida parapsilosis ATCC 22019
[39] = tested on: Bacillus subtilis ATCC 6633
[40] = tested on: Staphylococcus aureus ATCC 700699
[41] = tested on: Escherichia coli ATCC 9637
[42] = tested on: Staphylococcus aureus ATCC 700698
[43] = tested on: Cryptococcus neoformans
[44] = tested on: Staphylococcus aureus ATCC 25923
[45] = tested on: Staphylococcus aureus ATCC 33592
[46] = tested on: Sporothrix schenckii

SMILES: CC[C@H](C)[C@H](NC(=O)[C@H](CC(C)C)NC(=O)[C@H](CCCCN)NC(=O)[C@H](CC(C)C)NC(=O)[C@H](C)NC(=O)CNC(=O)[C@H](CCCCN)NC(=O)[C@H](C)NC(=O)[C@H](CC(C)C)NC(=O)[C@H](C)NC(=O)CNC(=O)[C@H](Cc1c[nH]c2ccccc12)NC(=O)[C@@H](N)Cc1ccccc1)C(=O)N1CCC[C@H]1C(=O)N[C@@H](CO)C(=O)N[C@@H](CC(C)C)C(=O)N[C@H](C(=O)N[C@@H](CO)C(=O)N[C@@H](CO)C(=O)N[C@@H](Cc1ccccc1)C(=O)N[C@H](C(N)=O)[C@@H](C)O)C(C)C [FWGALAKGALKLIPSLVSSFT]
- MIC [25]: 1.5 µM (≈ 3.31 µg/mL)
- MIC [26]: ≥ 40 µM
- MIC [27]: ≥ 35 µM
- MIC [28]: ≥ 45 µM
- MIC [29]: 6.9 µM (≈ 15.2 µg/mL)
- MIC [30]: ≥ 40 µM
- MIC [31]: ≥ 50.5 µM
- MIC [32]: ≥ 45 µM
- MIC [33]: 1.5 µM (≈ 3.31 µg/mL)

SMILES: CC[C@H](C)[C@H](NC(=O)[C@H](C)NC(=O)[C@H](CCCCN)NC(=O)[C@@H]1CCCN1C(=O)[C@H](C)NC(=O)[C@H](Cc1cnc[nH]1)NC(=O)[C@@H](NC(=O)[C@H](C)NC(=O)CNC(=O)[C@H](CCCCN)NC(=O)[C@@H](NC(=O)[C@H](CC(C)C)NC(=O)[C@H](Cc1c[nH]c2ccccc12)NC(=O)CNC(=O)[C@H](Cc1ccccc1)NC(=O)[C@@H](N)Cc1ccccc1)[C@@H](C)CC)[C@@H](C)CC)C(=O)N[C@@H](Cc1cnc[nH]1)C(=O)NCC(=O)N[C@@H](CC(C)C)C(=O)N[C@H](C(=O)N[C@@H](Cc1cnc[nH]1)C(=O)N[C@@H](CCCN=C(N)N)C(=O)N[C@@H](CCCN=C(N)N)C(=O)N[C@@H](CCCN=C(N)N)C(=O)N[C@@H](Cc1cnc[nH]1)C(=O)O)[C@@H](C)CC [FFGWLIKGAIHAPKAIHGLIHRRRH]
- MIC [34]: 1.6 µM (≈ 4.69 µg/mL)
- MIC [35]: 6.8 µM (≈ 19.9 µg/mL)
- MIC [36]: 6.8 µM (≈ 19.9 µg/mL)
- MIC [37]: 13.6 µM (≈ 39.9 µg/mL)
- MIC [38]: 6.8 µM (≈ 19.9 µg/mL)
- MIC [39]: 3 µM (≈ 8.8 µg/mL)
- MIC [40]: 1.6 µM (≈ 4.69 µg/mL)
- MIC [41]: 3 µM (≈ 8.8 µg/mL)
- MIC [42]: 3 µM (≈ 8.8 µg/mL)
- MIC [43]: 13.6 µM (≈ 39.9 µg/mL)
- MIC [20]: 1.6 µM (≈ 4.69 µg/mL)
- MIC [44]: 3 µM (≈ 8.8 µg/mL)
- MIC [45]: 1.6 µM (≈ 4.69 µg/mL)
- MIC [46]: 27.2 µM (≈ 79.8 µg/mL)

More lines, now with the values ahead:

- MIC [1]: ≥ 161 µM
- MIC [2]: ≥ 161 µM
- MIC [3]: ≥ 161 µM
SMILES: CC[C@H](C)[C@H](N)C(=O)N[C@H](C(=O)NCC(=O)N1CCC[C@H]1C(=O)N[C@H](C(=O)N[C@@H](CC(C)C)C(=O)NCC(=O)N[C@@H](CC(C)C)C(=O)N[C@H](C(=O)NCC(=O)N[C@@H](CCCCN)C(=O)N[C@@H](C)C(=O)N[C@@H](CC(C)C)C(=O)NCC(=O)NCC(=O)N[C@@H](CC(C)C)C(=O)N[C@@H](CC(C)C)C(N)=O)C(C)C)C(C)C)[C@@H](C)CC [IIGPVLGLVGKALGGLL]

- MIC [4]: 10 µM (≈ 21.7 µg/mL)
- MIC [5]: 3 µM (≈ 6.51 µg/mL)
- MIC [6]: 3.5 µM (≈ 7.6 µg/mL)
- MIC [7]: 10 µM (≈ 21.7 µg/mL)
- MIC [8]: 2 µM (≈ 4.34 µg/mL)
SMILES: CC[C@H](C)[C@H](NC(=O)[C@@H]1CCCN1C(=O)[C@H](CCCN=C(N)N)NC(=O)[C@@H]1CCCN1C(=O)[C@H](Cc1cnc[nH]1)NC(=O)[C@H](CO)NC(=O)[C@@H](NC(=O)[C@@H]1CCCN1C(=O)[C@H](CCCCN)NC(=O)[C@@H]1CCCN1C(=O)[C@H](CO)NC(=O)[C@H](Cc1ccc(O)cc1)NC(=O)[C@@H]1CCCN1C(=O)[C@H](CCCN=C(N)N)NC(=O)[C@@H]1CCCN1C(=O)[C@H](CCCCN)NC(=O)CN)[C@@H](C)O)C(=O)N[C@@H](CCCN=C(N)N)C(=O)N[C@H](C(=O)O)C(C)C [GKPRPYSPKPTSHPRPIRV]

- MIC [9]: 26.4 µM (≈ 64 µg/mL)
- MIC [10]: 1.65 µM (≈ 4 µg/mL)
- MIC [11]: 13.2 µM (≈ 32 µg/mL)
- MIC [12]: 8 µM (≈ 19.4 µg/mL)
- MIC [13]: 0.825 µM (≈ 2 µg/mL)
- MIC [14]: 1.65 µM (≈ 4 µg/mL)
- MIC [15]: 1.65 µM (≈ 4 µg/mL)
- MIC [16]: 4 µM (≈ 9.7 µg/mL)
- MIC [17]: 26.4 µM (≈ 64 µg/mL)
- MIC [18]: 26.4 µM (≈ 64 µg/mL)
- MIC [19]: 26.4 µM (≈ 64 µg/mL)
- MIC [20]: > 26.4 µM
- MIC [21]: 26.4 µM (≈ 64 µg/mL)
- MIC [22]: 2 µM (≈ 4.85 µg/mL)
- MIC [23]: 26.4 µM (≈ 64 µg/mL)
- MIC [24]: 8 µM (≈ 19.4 µg/mL)
SMILES: CC[C@H](C)[C@H](NC(=O)[C@H](C)NC(=O)[C@@H](NC(=O)[C@@H]1CCCN1C(=O)[C@H](CCCN=C(N)N)NC(=O)[C@H](CCCCN)NC(=O)[C@H](CO)NC(=O)[C@@H](NC(=O)[C@H](CC(C)C)NC(=O)[C@@H](NC(=O)[C@H](CCCN=C(N)N)NC(=O)[C@@H](NC(=O)[C@H](CC(C)C)NC(=O)[C@@H](N)CCCN=C(N)N)C(C)C)[C@@H](C)CC)C(C)C)C(C)C)C(=O)N[C@@H](CCCCN)C(=O)N1CCC[C@H]1C(=O)N[C@@H](Cc1ccc(O)cc1)C(=O)N[C@@H](Cc1ccccc1)C(=O)N[C@@H](CCCN=C(N)N)C(=O)N[C@@H](CC(C)C)C(=O)O [RLVRILVSKRPVAIKPYFRL]

— DBAASP
